According to patent US12642797B2, “Coated granule, solid dispersion, and preparation containing vortioxetine hydrobromide for oral taste masking” (Seasons Biotechnology (Taizhou) Co., Ltd., priority 2019, dated 2026):
Where a name gives a salt, the structure may show the parent alone.

Tested on: oral cavity and tongue
Assay: Taste and irritation test by subjects (self-made sample vs reference sample)
Type: in vivo, human
Settings: for Instantaneous irritation: 0-1 minute; for Instantaneous irritation / Delayed irritation: powder equivalent to 20 mg of vortioxetine tasted, hemihydrobromide
Protocol: In the examples, the taste masking effects of test samples were evaluated by the subject's perception of the bitterness and irritation of the oral cavity and tongue. The Taste and Irritation Classification Tested by the Subjects: [table]

[1] = Subject 1, listed as Reference sample (1a)
[2] = Subject 1, listed as Reference sample (1e)
[3] = Subject 1, listed as Reference sample (2a)
[4] = Subject 1, listed as Reference sample (2c)
[5] = Subject 1, listed as Reference sample (3a)
[6] = Subject 1, listed as Reference sample (3b)
[7] = Subject 1, listed as Reference sample (3c)
[8] = Subject 1, listed as Reference sample (4a)
[9] = Subject 1, listed as Reference sample (1d)
[10] = Subject 1, listed as Reference sample (2d)
[11] = Subject 2, listed as Reference sample (1a)
[12] = Subject 2, listed as Reference sample (1e)
[13] = Subject 2, listed as Reference sample (2a)
[14] = Subject 2, listed as Reference sample (2c)
[15] = Subject 2, listed as Reference sample (3a)
[16] = Subject 2, listed as Reference sample (3b)
[17] = Subject 2, listed as Reference sample (3c)
[18] = Subject 2, listed as Reference sample (4a)
[19] = Subject 2, listed as Reference sample (1d)
[20] = Subject 2, listed as Reference sample (2d)
[21] = Subject 3, listed as Reference sample (1a)
[22] = Subject 3, listed as Reference sample (1e)
[23] = Subject 3, listed as Reference sample (2a)
[24] = Subject 3, listed as Reference sample (2c)
[25] = Subject 3, listed as Reference sample (3a)
[26] = Subject 3, listed as Reference sample (3b)
[27] = Subject 3, listed as Reference sample (3c)
[28] = Subject 3, listed as Reference sample (4a)
[29] = Subject 3, listed as Reference sample (1d)
[30] = Subject 3, listed as Reference sample (2d)

## Cc1ccc(Sc2ccccc2N2CCNCC2)c(C)c1 [vortioxetine hemihydrobromide]
5 subjects, treated powder vs untreated 100-mesh salt powder, each equivalent to 20 mg vortioxetine
  Irritation, overall comparison in words: obvious and could hardly be tolerated
[1]
  Instantaneous irritation: ++ (+ + Irritating, tolerable)
  Delayed irritation: >30 min
[2]
  Instantaneous irritation: ++ (+ + Irritating, tolerable)
  Delayed irritation: 15 to 30 min
[3]
  Instantaneous irritation: +++ (+ + + Strong irritation, intolerable)
  Delayed irritation: >30 min
[4]
  Instantaneous irritation: +++ (+ + + Strong irritation, intolerable)
  Delayed irritation: >30 min
[5]
  Instantaneous irritation: +++ (+ + + Strong irritation, intolerable)
  Delayed irritation: >30 min
[6]
  Instantaneous irritation: +++ (+ + + Strong irritation, intolerable)
  Delayed irritation: >30 min
[7]
  Instantaneous irritation: +++ (+ + + Strong irritation, intolerable)
  Delayed irritation: >30 min
[8]
  Instantaneous irritation: +++ (+ + + Strong irritation, intolerable)
  Delayed irritation: >30 min
[9]
  Instantaneous irritation: ++ (+ + Irritating, tolerable)
  Delayed irritation: 15 to 30 min
[10]
  Instantaneous irritation: ++ (+ + Irritating, tolerable)
  Delayed irritation: >30 min
Subject 1, listed as Reference sample (5)
  Delayed irritation: 15 to 30 min
Subject 1, listed as Reference sample (6)
  Delayed irritation: 15 to 30 min
Subject 1, listed as Reference sample (7a)
  Delayed irritation: >30 min
Subject 1, listed as Reference sample (8a)
  Delayed irritation: 15 to 30 min
Subject 1, listed as Reference sample (8b)
  Delayed irritation: 15 to 30 min
[11]
  Instantaneous irritation: +++ (+ + + Strong irritation, intolerable)
  Delayed irritation: >30 min
[12]
  Instantaneous irritation: +++ (+ + + Strong irritation, intolerable)
  Delayed irritation: >30 min
[13]
  Instantaneous irritation: ++ (+ + Irritating, tolerable)
  Delayed irritation: 15 to 30 min
[14]
  Instantaneous irritation: ++ (+ + Irritating, tolerable)
  Delayed irritation: 15 to 30 min
[15]
  Instantaneous irritation: ++ (+ + Irritating, tolerable)
  Delayed irritation: 15 to 30 min
[16]
  Instantaneous irritation: ++ (+ + Irritating, tolerable)
  Delayed irritation: 15 to 30 min
[17]
  Instantaneous irritation: ++ (+ + Irritating, tolerable)
  Delayed irritation: 15 to 30 min
[18]
  Instantaneous irritation: ++ (+ + Irritating, tolerable)
  Delayed irritation: 15 to 30 min
[19]
  Instantaneous irritation: +++ (+ + + Strong irritation, intolerable)
  Delayed irritation: >30 min
[20]
  Instantaneous irritation: ++ (+ + Irritating, tolerable)
  Delayed irritation: 15 to 30 min
Subject 2, listed as Reference sample (5)
  Delayed irritation: >30 min
Subject 2, listed as Reference sample (6)
  Delayed irritation: >30 min
Subject 2, listed as Reference sample (7a)
  Delayed irritation: 15 to 30 min
Subject 2, listed as Reference sample (8a)
  Delayed irritation: 15 to 30 min
Subject 2, listed as Reference sample (8b)
  Delayed irritation: 15 to 30 min
[21]
  Instantaneous irritation: +++ (+ + + Strong irritation, intolerable)
  Delayed irritation: >30 min
[22]
  Instantaneous irritation: +++ (+ + + Strong irritation, intolerable)
  Delayed irritation: >30 min
[23]
  Instantaneous irritation: +++ (+ + + Strong irritation, intolerable)
  Delayed irritation: 1 to 15 min
[24]
  Instantaneous irritation: +++ (+ + + Strong irritation, intolerable)
  Delayed irritation: 1 to 15 min
[25]
  Instantaneous irritation: ++ (+ + Irritating, tolerable)
  Delayed irritation: >30 min
[26]
  Instantaneous irritation: ++ (+ + Irritating, tolerable)
  Delayed irritation: >30 min
[27]
  Instantaneous irritation: ++ (+ + Irritating, tolerable)
  Delayed irritation: >30 min
[28]
  Instantaneous irritation: +++ (+ + + Strong irritation, intolerable)
  Delayed irritation: >30 min
[29]
  Instantaneous irritation: +++ (+ + + Strong irritation, intolerable)
  Delayed irritation: >30 min
[30]
  Instantaneous irritation: +++ (+ + + Strong irritation, intolerable)
  Delayed irritation: 1 to 15 min
Subject 3, listed as Reference sample (5)
  Delayed irritation: 15 to 30 min
Subject 3, listed as Reference sample (6)
  Delayed irritation: 15 to 30 min
Subject 3, listed as Reference sample (7a)
  Delayed irritation: 15 to 30 min
Subject 3, listed as Reference sample (8a)
  Delayed irritation: >30 min
Subject 3, listed as Reference sample (8b)
  Delayed irritation: >30 min
Subject 4, listed as Reference sample (1a)
  Instantaneous irritation: ++ (+ + Irritating, tolerable)
Subject 4, listed as Reference sample (1e)
  Instantaneous irritation: ++ (+ + Irritating, tolerable)
